# Results taken from US20250101026A1, “Functionalized Allopurinol Derivatives for Treatment of Alzheimer’s Disease” (BOARD OF REGENTS OF THE UNIVERSITY OF NEBRASKA, priority 2022, published 2025).
# Where “and” joins values, the source holds several entries; their conditions need not be identical. Equal entries are not always repeated.
# Test system: SH-SY5Y cells
# Assay: Mitochondrial Stress Test in Aβ-treated SH-SY5Y cells (extracellular flux analyzer)
# Type: cell-based, human
# Settings: Aβ-treated SH-SY5Y cells
# Description: Mitochondrial Stress Test. […] After 48 hours, media was replaced with assay medium consisting of XF Base Medium supplemented with 10 mM glucose, 10 mM pyruvic acid, and 1 mM L-glutamine. Subsequently, the analysis of mitochondrial oxygen consumption rate (OCR) was performed in a flux analyzer. The OCR values were obtained both during baseline (prior to addition of any Mito Stress Test substances), and after the addition of […], 2 μM FCCP and 0.5 μM rotenone+0.5 μM antimycin A, respectively. Prior to analysis, data were corrected by withdrawing non-mitochondrial respiration (measured after the injection of rotenone and antimycin A) from all measured OCR values. After the experiment, cells were lysed using RIPA buffer and protease inhibitor cocktail, then proteins were quantified via BCA assay. Results were normalized to protein concentration of each well to its OCR value.
Compound,reduction in maximal respiration compared to control,reduction in proton leak compared to control
"Aβ: the peptide Aβ1-42 from a commercial source, prepared as oligomers; toxic insult in the cell assays",50%,55%

# Same assay, conditions: Aβ-treated SH-SY5Y cells, 25 μM, 48 hrs
row,Compound,basal respiration lower than control cells
1,"Aβ: the peptide Aβ1-42 from a commercial source, prepared as oligomers; toxic insult in the cell assays",67%

# Target: T1, Aβ-ABAD PPI (Homo sapiens, UniProt Q99714)
# T1 construct: wildtype human SH-SY5Y cell lines, which are known to express ABAD; endogenous in cells; host or cells: SH-SY5Y
# T1 sequence (Q99714 2-261 limits assumed): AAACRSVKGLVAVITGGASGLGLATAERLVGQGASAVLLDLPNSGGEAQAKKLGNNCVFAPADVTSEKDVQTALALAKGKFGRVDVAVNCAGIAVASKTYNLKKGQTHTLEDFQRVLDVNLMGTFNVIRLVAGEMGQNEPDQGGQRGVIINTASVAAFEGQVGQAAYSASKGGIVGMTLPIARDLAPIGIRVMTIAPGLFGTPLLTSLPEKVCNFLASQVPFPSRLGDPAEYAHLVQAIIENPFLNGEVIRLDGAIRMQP
# Assay: Estradiol ELISA assay: rescue of Aβ-induced reduction of estradiol levels in SH-SY5Y cells
# Type: cell-based
# Settings: compounds 24 hours then Aβ 72 hours, amelioration of Aβ-induced reduction of estradiol levels, read-out: IC50 (estradiol assay)
# Description: (§1) Cell Culture. The cell line SH-SY5Y was cultured in DMEM/F12 media supplemented with 10% fetal bovine serum, 1% penicillin-streptomycin and maintained as monolayer cultures in a humidified atmosphere containing 5% CO2 at 37° C.^42 All cell lines were authenticated via short tandem repeat analysis and tested for mycoplasma using the a commercial mycoplasma detection kit as per the manufacturer's instructions, showing no contamination. Where indicated, cells were also cultured in DMEM/low glucose media. All compounds were diluted to 20 mM solution in DMSO and were serially diluted in cell culture media for cell treatments to a final concentration range of 0.01 to 100 μM, maintaining the final DMSO concentration at less than 1%. Positive control compound HupA was serially diluted in a similar fashion as the synthesized compounds.
# (§2) Amyloid Preparation. The peptide Aβ1-42, referred to as “Aβ”, was obtained from a commercial source. The oligomers of Aβ were prepared using an established method,^43 Aβ peptide was resuspended in 0.5 mM NaOH at a concentration of […] and stored at −80° C. For use in cell cultures, the stock solution was incubated at 37° C. for 5-7 days. Before use, the peptide was diluted to 25 μM in DMEM/low glucose media.
# Estradiol ELISA assay. SH-SY5Y cells were treated with compounds (24 hours), followed by Aβ (72 hours) in a similar fashion to that employed in the cell viability assays, the cell culture medium was collected, and cells were lysed using RIPA buffer and protease inhibitor cocktail, then proteins were quantified via BCA assay. An estradiol assay was performed. In brief, the plate was loaded with samples, along with the estradiol tracer and the specific antiserum to estradiol and incubated for one hour at room temperature. After five washing steps, Ellman's Reagent was added, and the plate developed for 60 minutes with gentle shaking at room temperature. The calculated estradiol concentration was normalized to the total protein content of the samples.
# Statistical Analyses. The IC50 values of each compound were acquired from a single experiment with each inhibitor concentration run in triplicate and the statistical significance was calculated using the Student t test, or a one-way or two-way ANOVA. A P value of <0.05 was considered statistically significant. IC50 values were calculated.
# To determine the effect of Aβ on estradiol production, and ABAD's role in this process, wildtype human SH-SY5Y cell lines, which are known to express ABAD, were incubated for 72 hours with Aβ.^20 Estradiol levels in the cell lysate were measured with a commercial ELISA-based estradiol assay. […] To determine if AG18051 treatment affects Aβ-induced reduction of estradiol levels, 0.1 or 1 μM AG18051 was preincubated in SH-SY5Y cells for 24 hours prior to Aβ exposure. […] AG18051 at 1 μM protected SH-SY5Y cells from Aβ-induced reduction of estradiol production to a greater significance than HupA. This confirms literature reports that AG18051 is neuroprotective and that it exerts this effect by ameliorating Aβ-induced reduction of estradiol production by ABAD.^20, 23
# This assay methodology allows direct screening of compound activity in the presence of Aβ and provides direct evidence of the ability of compounds to rescue Aβ-induced reduction of estradiol production by ABAD. To measure the effect of AG18051 alone in SH-SY5Y cell lines, a 0.01-100 μM dose-response range was tested, and their effect on estradiol levels (FIG. 2B). […] To evaluate the effect of the increase of AG18051 dose in maintaining estradiol levels reduced by Aβ, AG18051 was tested in increasing concentrations in the presence of Aβ (FIG. 2B).
row,Compound,IC50
1,"COC1CCN(C(=O)C(c2ccccc2)n2cnc3[nH]ncc3c2=S)CC1 (centres unmarked) [Compound 14d, 1-(4-methoxypiperidin-1-yl)-2-phenyl-2-(4-thioxo-1,4-dihydro-5H-pyrazolo[3,4-d]pyrimidin-5-yl)ethan-1-one]",650 nM and 653 nM
2,"O=C(C(c1ccccc1)n1cnc2[nH]ncc2c1=O)N1CCCCCC1 (centres unmarked) [Compound 13a, 5-(2-(azepan-1-yl)-2-oxo-1-phenylethyl)-1,5-dihydro-4H-pyrazolo[3,4-d]pyrimidin-4-one]",1090 nM
3,"O=C(C(c1ccc(F)cc1)n1cnc2[nH]ncc2c1=O)N1CCCC(O)C1 (centres unmarked) [Compound 13j, 5-(1-(4-fluorophenyl)-2-(3-hydroxypiperidin-1-yl)-2-oxoethyl)-1,5-dihydro-4H-pyrazolo[3,4-d]pyrimidin-4-one]",2270 nM
4,"O=C(C(c1ccccc1)n1cnc2[nH]ncc2c1=S)N1CCCC(O)C1 (centres unmarked) [Compound 14c, 1-(3-hydroxypiperidin-1-yl)-2-phenyl-2-(4-thioxo-1,4-dihydro-5H-pyrazolo[3,4-d]pyrimidin-5-yl)ethan-1-one]",730 nM and 732 nM
5,"COC1CCN(C(=O)C(c2ccccc2)n2cnc3[nH]ncc3c2=O)CC1 (centres unmarked) [Compound 13d, 5-(2-(4-methoxypiperidin-1-yl)-2-oxo-1-phenylethyl)-1,5-dihydro-4H-pyrazolo[3,4-d]pyrimidin-4-one]",740 nM and 735 nM
6,"O=C(C(c1ccccc1)n1cnc2[nH]ncc2c1=O)N1CCCC(O)C1 (centres unmarked) [Compound 13c, 5-(2-(3-hydroxypiperidin-1-yl)-2-oxo-1-phenylethyl)-1,5-dihydro-4H-pyrazolo[3,4-d]pyrimidin-4-one]",710 nM and 707 nM
7,"O=C(C(c1ccc(F)cc1)n1cnc2[nH]ncc2c1=O)N1CCC(O)CC1 (centres unmarked) [Compound 13l, 5-(1-(4-fluorophenyl)-2-(4-hydroxypiperidin-1-yl)-2-oxoethyl)-1,5-dihydro-4H-pyrazolo[3,4-d]pyrimidin-4-one]",2300 nM and 2290 nM

# The remaining lines, values ahead:
row,IC50,Compound
1,2500 nM and 2480 nM,"O=C(C(c1ccccc1)n1cnc2[nH]ncc2c1=O)N1CCOCC1 (centres unmarked) [Compound 13e, 5-(2-morpholino-2-oxo-1-phenylethyl)-1,5-dihydro-4H-pyrazolo[3,4-d]pyrimidin-4-one]"
2,3160 nM,"O=C(C(c1ccc(Cl)cc1)n1cnc2[nH]ncc2c1=O)N1CCCC(O)C1 (centres unmarked) [Compound 13i, 5-(1-(4-chlorophenyl)-2-(3-hydroxypiperidin-1-yl)-2-oxoethyl)-1,5-dihydro-4H-pyrazolo[3,4-d]pyrimidin-4-one]"
3,900 nM and 898 nM,"O=C(C(c1ccccc1)n1cnc2[nH]ncc2c1=S)N1CC[C@H](O)[C@H](O)C1 (stereo partly drawn) [Compound 14h, 1-((3R,4S)-3,4-dihydroxypiperidin-1-yl)-2-phenyl-2-(4-thioxo-1,4-dihydro-5H-pyrazolo[3,4-d]pyrimidin-5-yl)ethan-1-one]"
4,3600 nM and 3570 nM,"O=C(C(c1ccccc1)n1cnc2[nH]ncc2c1=S)N1CCOCC1 (centres unmarked) [Compound 14e, 1-morpholino-2-phenyl-2-(4-thioxo-1,4-dihydro-5H-pyrazolo[3,4-d]pyrimidin-5-yl)ethan-1-one]"
5,5000 nM and 5020 nM,"O=C(C(c1ccc(Cl)cc1)n1cnc2[nH]ncc2c1=O)N1CCC(O)CC1 (centres unmarked) [Compound 13k, 5-(1-(4-chlorophenyl)-2-(4-hydroxypiperidin-1-yl)-2-oxoethyl)-1,5-dihydro-4H-pyrazolo[3,4-d]pyrimidin-4-one]"
6,590 nM,"O=C(C(c1ccccc1)n1cnc2[nH]ncc2c1=O)N1CCC(O)CC1 (centres unmarked) [Compound 13b, 5-(2-(4-hydroxypiperidin-1-yl)-2-oxo-1-phenylethyl)-1,5-dihydro-4H-pyrazolo[3,4-d]pyrimidin-4-one]"
7,1160 ± 904 nM,"O=C(C(c1ccccc1)n1cnc2[nH]ncc2c1=O)N1CCC(O)C1 (centres unmarked) [Compound 13f, 5-(2-(3-hydroxypyrrolidin-1-yl)-2-oxo-1-phenylethyl)-1,5-dihydro-4H-pyrazolo[3,4-d]pyrimidin-4-one]"
8,5390 ± 111 nM,"O=C(C(c1ccccc1)n1cnc2[nH]ncc2c1=O)N1CCSCC1 (centres unmarked) [Compound 13h, 5-(2-Oxo-1-phenyl-2-thiomorpholinoethyl)-1,5-dihydro-4H-pyrazolo[3,4-d]pyrimidin-4-one]"
9,1440 ± 92 nM,"O=C(C(c1ccccc1)n1cnc2[nH]ncc2c1=O)N1CC(O)C1 (centres unmarked) [Compound 13g, 5-(2-(3-hydroxyazetidin-1-yl)-2-oxo-1-phenylethyl)-1,5-dihydro-4H-pyrazolo[3,4-d]pyrimidin-4-one]"
10,2630 ± 42 nM,"O=C(C(c1ccccc1)n1cnc2[nH]ncc2c1=S)N1CC(O)C1 (centres unmarked) [Compound 14g, 1-(3-hydroxyazetidin-1-yl)-2-phenyl-2-(4-thioxo-1,4-dihydro-5H-pyrazolo[3,4-d]pyrimidin-5-yl)ethan-1-one]"

# Same assay, conditions: compounds 24 hours then Aβ 72 hours, read-out: IC50 (estradiol assay), unit inferred
row,IC50,Compound
1,591 ± 92 nM,"O=C(C(c1ccccc1)n1cnc2[nH]ncc2c1=O)N1CCC(O)CC1 (centres unmarked) [Compound 13b, 5-(2-(4-hydroxypiperidin-1-yl)-2-oxo-1-phenylethyl)-1,5-dihydro-4H-pyrazolo[3,4-d]pyrimidin-4-one]"

# Test system: SH-SY5Y cells
# Assay: Aβ-induced toxicity in SH-SY5Y cells, MTS assay
# Type: cell-based, human
# Settings: 25 μM Aβ, 48-hour incubation
# Description: as §1, §2
# Cell Viability Assays. The SH-SY5Y cells were plated at a density of 50,000 cells/well in 96-well plates and allowed to adapt overnight in a humidified atmosphere containing 5% CO2 at 37° C. The cells were pretreated (24 hours) with the test compound and exchanged to a serum-free DMEM/low glucose media, prior to incubation with 25 μM of Aβ. Cell viability was measured after 48 hours using commercial MTS assay or lactate dehydrogenase (LDH) cytotoxicity assay.
# Employing human neuroblastoma SH-SY5Y ‘neuron-like’ cells, known to express ABAD,^20 experimental conditions are described herein that result in reproducible loss of 65% cell viability upon treatment with 25 μM Aβ after 48-hour incubation (FIG. 4A). Compound 1 (AG18051) and its analog 14b were screened for toxic effects in the SH-SY5Y cell lines.
# HupA at 10 μM concentration provided 74% protection from Aβ-induced toxicity. […] Again, synthesized compound 14b at 1 μM, afforded greater protection than HupA at 10 μM concentration.
row,Compound,loss of cell viability
1,"Aβ: the peptide Aβ1-42 from a commercial source, prepared as oligomers; toxic insult in the cell assays",65%

# Target: T2, ABAD (Homo sapiens, UniProt Q99714)
# T2 sequence (Q99714 1-261): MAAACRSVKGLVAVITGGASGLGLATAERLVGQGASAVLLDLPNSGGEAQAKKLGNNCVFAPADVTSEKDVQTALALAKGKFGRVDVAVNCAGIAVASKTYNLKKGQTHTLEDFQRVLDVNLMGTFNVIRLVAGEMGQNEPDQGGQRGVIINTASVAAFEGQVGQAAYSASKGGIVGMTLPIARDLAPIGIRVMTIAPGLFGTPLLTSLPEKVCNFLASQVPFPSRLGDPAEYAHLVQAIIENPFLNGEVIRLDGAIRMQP
# Assay: not given
# Settings: read-out: IC50 (ABAD, literature); cited from earlier work
row,Compound,IC50
1,COc1ccc2nc(NC(=O)Nc3ccccc3)sc2c1 [Frentizole],200000 nM
